{
  "source": "patent EP0767778B1",
  "about": "“1-PHENOXY-3-N-ALKYLAMINOPROPAN-2-OL HALOGEN DERIVATIVES USEFUL AS MYOCARDIAL beta [sequence] RECEPTOR MARKERS AND AS beta-BLOCKING AGENTS” (CIS BIO INTERNATIONAL, priority 1994, dated 1996)",
  "key": {"[1]": {"target": "récepteurs β adrénergiques", "experiment": "displacement of [^3H]CGP 12177 previously bound on newborn rat cardiomyocytes", "format": "binding, rats nouveau-nés", "conditions": "read-out: CI50 (the source's name)", "text": "Dans cet exemple, on teste l'affinité du composé 6 marqué avec ^123I vis-à-vis des récepteurs β adrénergiques.\nOn étudie sur cardiomyocytes de rats nouveau-nés la capacité du composé 6 à déplacer le [^3H]CGP 12177 préalablement fixé sur les récepteurs."}, "[2]": {"test_system": "récepteurs β adrénergiques", "experiment": "isolated perfused rat heart (Langendorff), antagonism of isoprenaline on dP/dt max", "procedure": "Dans cet exemple, on teste la propriété pharmacologique antagoniste du composé 6 vis-à-vis des récepteurs β adrénergiques.\nL'expérience est conduite sur coeur de rat isolé et perfusé selon la technique de Langendorff.\nAprès une préperfusion de 25 minutes avec une solution de Krebs-Henseleit, le coeur est perfusé avec de l'isoprénaline à la concentration de 10^-8M pendant 10 minutes; puis avec une solution d'isoprénaline à 10^-8M associée à la molécule à tester à la concentration de 10^-6M.\nSi la molécule à tester diminue la dP/dt max en présence d'isoprénaline, on pourra affirmer que cette molécule se comporte comme un antagoniste de l'isoprénaline vis-à-vis des récepteurs β adrénergiques."}, "[3]": {"experiment": "octanol-water partition coefficient at room temperature", "format": "physicochemical", "conditions": "température ambiante"}, "[4]": {"experiment": "radioactivity in organs after injection in the mouse (Example 10)", "format": "in vivo", "conditions": "souris, 329.10^-12 mol", "text": "Dans cet exemple, on teste chez la souris les propriétés du [^123I] - composé 6 comme traceur radioactif pour l'examen du myocarde.\nAprès injection de 500.10^-12 mol de [^123I]-composé 6, les animaux sont sacrifiés et les organes d'intérêt récupérés et comptés. Le tableau 3 qui suit reporte les valeurs de la radioactivité trouvée dans les organes ou liquides biologiques exprimées en pourcentage de la dose injectée par gramme d'organe. TABLEAU 3 :\nDans le tableau 4 qui suit, on a donné à titre comparatif les résultats obtenus lorsqu'on injecte 329.10^-12 mol de [^3H]CGP 12177."}, "[5]": {"experiment": "biodistribution study in the mouse (Example 22)", "format": "in vivo, souris", "conditions": "for Biodistribution Coeur / Biodistribution Poumon: souris swiss femelles, injection intraveineuse", "procedure": "L'étude de la biodistribution des radioligands chez la souris, permet d'apprécier l'intensité relative de la fixation cardiaque de la molécule et son évolution dans le temps.\nAprès marquage à l'iode 123 et purification par CLHP 20µCi environ de produit sont mis en solution dans 5 ml d'une solution : éthanol 20%-sérum physiologique 80%. Après injection intraveineuse de 25 µl de cette solution dans la queue de souris vigiles (souris swiss femelles de 20 à 25 g), celles-ci (5 à chaque fois) sont sacrifiées à différents temps après l'injection. On mesure pour chaque souris les activités cardiaques, hépatique, rénale et pulmonaire. Les résultats sont exprimés en pourcentage de la dose injectée par gramme d'organe.\nLe CGP12177 étant la référence, un lot de souris a été étudié après injection de CGP 12177 marqué au tritium."}, "[6]": {"conditions": "[^3H]CGP 12177 5.10^-9M, 30 minutes d'incubation, cardiomyocytes de rats nouveau-nés"}},
  "note": "Where two headings read alike, the source gives them in different places.",
  "data": [
    {"compound": "CC(C)NCC(O)COc1ccc(CC(N)=O)cc1", "note": "(stereo not shown) [atenolol, reference compound]", "values": [
      {"measurement": "IC50", "setting": "[1]; [6]", "result": 19000, "unit": "nM"}
    ]},
    {"compound": "CC(C)NCC(O)COc1ccc(NC(=O)CCC=CI)cc1", "note": "(stereo not shown) [composé 6, 1-[4-(4-iodobut-3-énamido)phénoxy]-3-N-isopropyl aminopropan-2-ol]", "values": [
      {"measurement": "IC50", "setting": "[1]; [6]", "result": 2000, "unit": "nM"},
      {"measurement": "IC50", "setting": "[1]; summary, unit inferred", "result": 2040, "unit": "nM"},
      {"measurement": "DP/dt max", "setting": "[2]; Isoprénaline + molécule (10^e+8 min), isoprénaline 10^-8M, test molecule 10^-6M, n=6", "result": "973±240", "unit": "mmHg/min"},
      {"measurement": "pourcentage d'inhibition vis-à-vis de l'isoprénaline", "setting": "[2]; effet antagoniste, summary", "result": 116, "unit": "%"},
      {"measurement": "effect on the action of isoprénaline on dP/dt max", "setting": "[2]; isoprénaline 10^-8M + molecule 10^-6M", "result": "antagonise complètement l'action de l'isoprénaline"}
    ]},
    {"compound": "(2S)-4 (3-t-butylamino-2-hydroxypropoxy)-benzimidazol-2-one [[^3H]-CGP 12177, reference compound]", "values": [
      {"measurement": "COEFFICIENT DE PARTAGE OCTANOL-EAU", "setting": "[3]; pH=4,2", "result": "0,0088"},
      {"measurement": "COEFFICIENT DE PARTAGE OCTANOL-EAU", "setting": "[3]; pH=7,4", "result": "0,18"},
      {"measurement": "radioactivité COEUR", "setting": "[4]; 1 min", "result": "6,8±4 pourcentage de la dose injectée par gramme d'organe"},
      {"measurement": "radioactivité POUMON", "setting": "[4]; 1 min", "result": "26,3±2,1 pourcentage de la dose injectée par gramme d'organe"},
      {"measurement": "radioactivité COEUR", "setting": "[4]; 2 min", "result": "6,3±0,3 pourcentage de la dose injectée par gramme d'organe"},
      {"measurement": "radioactivité POUMON", "setting": "[4]; 2 min", "result": "31,6±6,8 pourcentage de la dose injectée par gramme d'organe"},
      {"measurement": "radioactivité COEUR", "setting": "[4]; 5 min", "result": "5,9±0,8 pourcentage de la dose injectée par gramme d'organe"},
      {"measurement": "radioactivité POUMON", "setting": "[4]; 5 min", "result": "29,7±5,8 pourcentage de la dose injectée par gramme d'organe"},
      {"measurement": "radioactivité COEUR", "setting": "[4]; 10 min", "result": "5,3±0,2 pourcentage de la dose injectée par gramme d'organe"},
      {"measurement": "radioactivité POUMON", "setting": "[4]; 10 min", "result": "29±5,1 pourcentage de la dose injectée par gramme d'organe"},
      {"measurement": "Biodistribution Coeur", "setting": "[5]; 1 min.", "result": "9 ± 1,4 pourcentage de la dose injectée par gramme d'organe"},
      {"measurement": "Biodistribution Poumon", "setting": "[5]; 1 min.", "result": "66,3 ± 9,2 pourcentage de la dose injectée par gramme d'organe"},
      {"measurement": "Biodistribution Coeur", "setting": "[5]; 2 min.", "result": "7,2 ± 0,9 pourcentage de la dose injectée par gramme d'organe"},
      {"measurement": "Biodistribution Poumon", "setting": "[5]; 2 min.", "result": "44,3 ± 8,6 pourcentage de la dose injectée par gramme d'organe"},
      {"measurement": "Biodistribution Coeur", "setting": "[5]; 5 min.", "result": "7,0 ± 1 pourcentage de la dose injectée par gramme d'organe"},
      {"measurement": "Biodistribution Poumon", "setting": "[5]; 5 min.", "result": "37,9 ± 9,3 pourcentage de la dose injectée par gramme d'organe"},
      {"measurement": "Biodistribution Coeur", "setting": "[5]; 10 min.", "result": "6,7 ± 1,3 pourcentage de la dose injectée par gramme d'organe"},
      {"measurement": "Biodistribution Poumon", "setting": "[5]; 10 min.", "result": "42 ± 8,5 pourcentage de la dose injectée par gramme d'organe"},
      {"measurement": "activité dans le myocarde (plateau)", "setting": "[5]; souris, plateau dès la 2ème minute après l'injection", "result": "~7 % de la dose injectée par gramme d'organe"}
    ]}
  ]
}
